Laboratory results reported in US10730874B2 (Shire Human Genetic Therapies, Inc., priority 2018, dated 2020).
pEC50: −log10 of the molar value.

The compounds below were run against human activated kallikrein enzyme (plasma kallikrein) (Homo sapiens (Human), UniProt P03952) (assay: Inhibition of human activated plasma kallikrein, fluorogenic peptide substrate assay, 500 pM enzyme format). Conditions: 500 pM activated kallikrein enzyme, 300 uM Pro-Phe-Arg-7-amido-4-methylcoumarin substrate, 30 min preincubation, 10 min at RT; read-out: Primary Dose Response Assay: Average EC50.
Type: biochemical
In short: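 Buffer 20 mM Tris pH 7.5, EDTA, NaCl, PEG-400, Triton X-100; 300 uM Pro-Phe-Arg-AMC; enzyme–inhibitor preincubation 30 min RT. Format one: 500 pM kallikrein, 10 min RT reaction; format two: 5 pM kallikrein, 18 h RT reaction. Fluorescence read at 460 nm (380 nm excitation).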

Chain of human activated kallikrein enzyme (plasma kallikrein) (P03952 391-638): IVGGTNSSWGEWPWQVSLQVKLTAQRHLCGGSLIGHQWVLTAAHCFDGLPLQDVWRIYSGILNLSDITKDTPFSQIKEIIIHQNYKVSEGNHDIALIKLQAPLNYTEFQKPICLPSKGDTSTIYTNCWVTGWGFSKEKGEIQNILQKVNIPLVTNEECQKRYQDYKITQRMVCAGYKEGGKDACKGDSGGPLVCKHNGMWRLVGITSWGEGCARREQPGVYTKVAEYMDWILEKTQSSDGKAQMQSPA
Chain of human activated kallikrein enzyme (plasma kallikrein) (P03952 20-390 partner): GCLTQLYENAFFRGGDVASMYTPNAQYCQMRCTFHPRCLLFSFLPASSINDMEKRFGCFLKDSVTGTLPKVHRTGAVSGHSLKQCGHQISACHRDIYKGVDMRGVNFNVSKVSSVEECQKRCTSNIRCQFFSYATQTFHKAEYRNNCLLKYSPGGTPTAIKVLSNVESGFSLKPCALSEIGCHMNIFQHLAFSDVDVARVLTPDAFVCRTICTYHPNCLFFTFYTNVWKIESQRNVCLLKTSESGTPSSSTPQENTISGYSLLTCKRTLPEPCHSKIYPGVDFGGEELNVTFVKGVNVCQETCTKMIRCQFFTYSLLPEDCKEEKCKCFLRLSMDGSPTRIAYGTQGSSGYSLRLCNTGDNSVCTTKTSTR

Row | pEC50 | SMILES
1 | 7.00 to 8.00 | Cc1cccc2nc(Cn3cc(C(=O)NCc4ncn5ccc(Cl)cc45)cn3)cn12 [Example I-9, N-((7-chloroimidazo[1,5-a]pyridin-1-yl)methyl)-1-((5-methylimidazo[1,2-a]pyridin-2-yl)methyl)-1H-pyrazole-4-carboxamide]
2 | 7.00 to 8.00 | O=C(NCc1ncn2ccc(Cl)cc12)c1cnn(Cc2cn3cc(Br)c(Cl)cc3n2)c1 [Example I-36, 1-((6-bromo-7-chloroimidazo[1,2-a]pyridin-2-yl)methyl)-N-((7-chloroimidazo[1,5-a]pyridin-1-yl)methyl)-1H-pyrazole-4-carboxamide]
3 | 8.00 to 9.00 | COc1c(C2CC2)ccc2nc(Cn3cc(C(=O)NCc4ncn5ccc(Cl)cc45)cn3)cn12 [Example I-142, N-((7-chloroimidazo[1,5-a]pyridin-1-yl)methyl)-1-((6-cyclopropyl-5-methoxyimidazo[1,2-a]pyridin-2-yl)methyl)-1H-pyrazole-4-carboxamide]
4 | > 9.00 | O=C(NCc1ncn2ccc(Cl)c(F)c12)c1cnn(Cc2cn3cc(C4CC4)ccc3n2)c1 [Example I-147, N-((7-chloro-8-fluoroimidazo[1,5-a]pyridin-1-yl)methyl)-1-((6-cyclopropylimidazo[1,2-a]pyridin-2-yl)methyl)-1H-pyrazole-4-carboxamide]
5 | 8.00 to 9.00 | O=C(NCc1ncn2ccc(Cl)cc12)c1cnn(Cc2cn3c(Br)cccc3n2)c1 [Example I-27, 1-((5-bromoimidazo[1,2-a]pyridin-2-yl)methyl)-N-((7-chloroimidazo[1,5-a]pyridin-1-yl)methyl)-1H-pyrazole-4-carboxamide]
6 | 5.70 to 7.00 | Cc1ccc2nc(Cn3cc(C(=O)NCc4ncn5ccc(Cl)c(C)c45)cn3)cn2c1 [Example I-35, N-((7-chloro-8-methylimidazo[1,5-a]pyridin-1-yl)methyl)-1-((6-methylimidazo[1,2-a]pyridin-2-yl)methyl)-1H-pyrazole-4-carboxamide]
7 | 5.70 to 7.00 | O=C(NCc1ncn2ccc(C3CC3)cc12)c1cnn(Cc2cn3cc(C4CC4)ccc3n2)c1 [Example I-48, 1-((6-cyclopropylimidazo[1,2-a]pyridin-2-yl)methyl)-N-((7-cyclopropylimidazo[1,5-a]pyridin-1-yl)methyl)-1H-pyrazole-4-carboxamide]

The remaining lines, values behind:

Row | SMILES | pEC50
8 | CCOC(=O)Cc1cc(C2CC2)cn2cc(Cn3cc(C(=O)NCc4ncn5ccc(Br)c(F)c45)cn3)nc12 [Example I-105, ethyl 2-(2-((4-(((7-bromo-8-fluoroimidazo[1,5-a]pyridin-1-yl)methyl)carbamoyl)-1H-pyrazol-1-yl)methyl)-6-cyclopropylimidazo[1,2-a]pyridin-8-yl)acetate] | > 9.00
9 | O=C(NCc1ncn2ccc(Cl)c(F)c12)c1cn(Cc2cn3cc(C4CC4)ccc3n2)nn1 [Example I-148, N-((7-chloro-8-fluoroimidazo[1,5-a]pyridin-1-yl)methyl)-1-((6-cyclopropylimidazo[1,2-a]pyridin-2-yl)methyl)-1H-1,2,3-triazole-4-carboxamide] | > 9.00
10 | O=C(NCc1ncn2ccc(Cl)c(F)c12)c1cn(Cc2cn3cc(C4CC4)c(F)cc3n2)nn1 [Example I-239, N-((7-chloro-8-fluoroimidazo[1,5-a]pyridin-1-yl)methyl)-1-((6-cyclopropyl-7-fluoroimidazo[1,2-a]pyridin-2-yl)methyl)-1H-1,2,3-triazole-4-carboxamide] | 8.00 to 9.00
11 | O=C(NCc1ncn2ccc(Cl)c(F)c12)c1cnn(Cc2nc3ccccn3n2)c1 [Example I-282, 1-([1,2,4]triazolo[1,5-a]pyridin-2-ylmethyl)-N-((7-chloro-8-fluoroimidazo[1,5-a]pyridin-1-yl)methyl)-1H-pyrazole-4-carboxamide] | 5.70 to 7.00
12 | CC(C)(Cc1cc(C2CC2)cn2cc(Cn3cc(C(=O)NCc4ncn5ccc(Cl)c(F)c45)cn3)nc12)c1nn[nH]n1 [Example I-238, N-((7-chloro-8-fluoroimidazo[1,5-a]pyridin-1-yl)methyl)-1-((6-cyclopropyl-8-(2-methyl-2-(2H-tetrazol-5-yl)propyl)imidazo[1,2-a]pyridin-2-yl)methyl)-1H-pyrazole-4-carboxamide] | > 9.00
13 | O=C(NCc1ncn2ccc(Cl)c(F)c12)c1cn(Cc2cn3cc(C4CC4)cc(-c4cncs4)c3n2)nn1 [Example I-263, N-((7-chloro-8-fluoroimidazo[1,5-a]pyridin-1-yl)methyl)-1-((6-cyclopropyl-8-(thiazol-5-yl)imidazo[1,2-a]pyridin-2-yl)methyl)-1H-1,2,3-triazole-4-carboxamide] | > 9.00
14 | O=C(NCc1ncn2ccc(Cl)cc12)c1cnn(Cc2cn3nc(C4CC4)ccc3n2)c1 [Example I-15, N-((7-chloroimidazo[1,5-a]pyridin-1-yl)methyl)-1-((6-cyclopropylimidazo[1,2-b]pyridazin-2-yl)methyl)-1H-pyrazole-4-carboxamide] | > 9.00
15 | O=C(NCc1ncn2ccc(Br)cc12)c1cnn(Cc2cn3cc(C4CC4)ccc3n2)c1 [Example I-5, N-((7-bromoimidazo[1,5-a]pyridin-1-yl)methyl)-1-((6-cyclopropylimidazo[1,2-a]pyridin-2-yl)methyl)-1H-pyrazole-4-carboxamide] | > 9.00
16 | O=C(NCc1ncn2ccc(Br)c(F)c12)c1cn(Cc2cn3cc(C4CC4)cc(F)c3n2)nn1 [Example I-200, N-((7-bromo-8-fluoroimidazo[1,5-a]pyridin-1-yl)methyl)-1-((6-cyclopropyl-8-fluoroimidazo[1,2-a]pyridin-2-yl)methyl)-1H-1,2,3-triazole-4-carboxamide] | > 9.00
17 | O=C(NCc1ncn2ccc(Cl)cc12)c1cnn(Cc2cn3cc(C4CC4)cc(Cc4nnco4)c3n2)c1 [Example I-155, 1-((8-((1,3,4-oxadiazol-2-yl)methyl)-6-cyclopropylimidazo[1,2-a]pyridin-2-yl)methyl)-N-((7-chloroimidazo[1,5-a]pyridin-1-yl)methyl)-1H-pyrazole-4-carboxamide] | > 9.00
18 | C=Cc1ccn2cnc(CNC(=O)c3cnn(Cc4cn5cc(C6CC6)ccc5n4)c3)c2c1 [Example I-118, 1-((6-cyclopropylimidazo[1,2-a]pyridin-2-yl)methyl)-N-((7-vinylimidazo[1,5-a]pyridin-1-yl)methyl)-1H-pyrazole-4-carboxamide] | 8.00 to 9.00
19 | O=C(NCc1ncn2ccc(Cl)c(F)c12)c1ccn(Cc2cn3cc(C4CC4)ccc3n2)c1 [Example I-276, N-((7-chloro-8-fluoroimidazo[1,5-a]pyridin-1-yl)methyl)-1-((6-cyclopropylimidazo[1,2-a]pyridin-2-yl)methyl)-1H-pyrrole-3-carboxamide] | > 9.00
20 | O=C(NCc1ncn2ccc(Cl)c(F)c12)c1cn(Cc2cn3cc(C4CC4)cc(C(F)(F)F)c3n2)nn1 [Example I-185, N-((7-chloro-8-fluoroimidazo[1,5-a]pyridin-1-yl)methyl)-1-((6-cyclopropyl-8-(trifluoromethyl)imidazo[1,2-a]pyridin-2-yl)methyl)-1H-1,2,3-triazole-4-carboxamide] | > 9.00

Same assay, conditions: comparative compounds (Table II); assay format with 500 pM (500 μM in the source) activated kallikrein; read-out: Primary Dose Response Assay: Average EC50

Row | pEC50 | SMILES
21 | 7.00 to 8.00 | O=C(NCc1ncn2ccc(Cl)cc12)c1ccnc(Cc2ccc3ncc(Cl)cc3c2)c1 [drawing 399, reference compound]
